From patent publication US4971965A, “Antibiotics TAN-1057” (Takeda Chemical Industries, Ltd., priority 1988, dated 1990)
Converted amounts (≈) assume the structure as drawn. Structures can show the parent of a compound that is named as a salt.

Key:
[1] = tested on: Pseudomonas aeruginosa IFO 3080; type: cell-based; conditions: IFO3080, agar dilution, DY medium, pH unadjusted, approx. 10^6 CFU/ml, read-out: Minimum Inhibitory Conc. (MIC)
Procedure: (§1) (Note 1) Measurement was conducted by employing a medium consisting of DY
(§2) medium [Bacto Antibiotic Medium 3 (Difco Laboratories, USA)(17.5 g), Bact
(§3) yeast extract(Difco Laboratories, USA)(5.0 g) and distilled water(pH
(§4) unadjusted)(1000 ml)], using approximately 10^6 colony forming unit/m
(§5) of inoculum, by means of the agar dilution method.

[2] = tested on: Proteus vulgaris IFO 3988; type: cell-based; conditions: IFO3988, agar dilution, DY medium, pH unadjusted, approx. 10^6 CFU/ml, read-out: Minimum Inhibitory Conc. (MIC)
Procedure: as §1, §2, §3, §4, §5

[3] = tested on: Escherichia coli NIHJ JC 2; type: cell-based; conditions: NIHJJC2, agar dilution, DY medium, pH unadjusted, approx. 10^6 CFU/ml, read-out: Minimum Inhibitory Conc. (MIC)
Procedure: as §1, §2, §3, §4, §5

Bacillus cereus FDA 5 = type: cell-based; conditions: FDA5, agar dilution, DY medium, pH unadjusted, approx. 10^6 CFU/ml, read-out: Minimum Inhibitory Conc. (MIC)
Procedure: as §1, §2, §3, §4, §5

Escherichia coli LD-2 = type: cell-based; conditions: LD2, agar dilution, DY medium, pH unadjusted, approx. 10^6 CFU/ml, read-out: Minimum Inhibitory Conc. (MIC)
Procedure: as §1, §2, §3, §4, §5

[4] = tested on: Streptococcus faecalis IFO 3989; type: cell-based; conditions: Enterococcus faecalis, IFO3989; agar dilution; DY medium, pH unadjusted; approx. 10^6 CFU/ml; read-out: Minimum Inhibitory Conc. (MIC)
Procedure: as §1, §2, §3, §4, §5

[5] = tested on: Bacillus subtilis NIHJ PCI 219; type: cell-based; conditions: agar dilution, DY medium, pH unadjusted, approx. 10^6 CFU/ml, read-out: Minimum Inhibitory Conc. (MIC)
Procedure: as §1, §2, §3, §4, §5

[6] = tested on: Staphylococcus aureus FDA 209P; type: cell-based; conditions: FDA209P, agar dilution, DY medium, pH unadjusted, approx. 10^6 CFU/ml, read-out: Minimum Inhibitory Conc. (MIC)
Procedure: as §1, §2, §3, §4, §5

Aeromonas caviae NCW = type: cell-based; conditions: agar dilution, DY medium, pH unadjusted, approx. 10^6 CFU/ml, read-out: Minimum Inhibitory Conc. (MIC)
Procedure: as §1, §2, §3, §4, §5

[7] = tested on: Bacillus megaterium IFO 12108; type: cell-based; conditions: Priestia megaterium, IFO12108; agar dilution; DY medium, pH unadjusted; approx. 10^6 CFU/ml; read-out: Minimum Inhibitory Conc. (MIC)
Procedure: as §1, §2, §3, §4, §5

[8] = tested on: Micrococcus luteus IFO 12708; type: cell-based; conditions: IFO12708, agar dilution, DY medium, pH unadjusted, approx. 10^6 CFU/ml, read-out: Minimum Inhibitory Conc. (MIC)
Procedure: as §1, §2, §3, §4, §5

[9] = tested on: Acinetobacter calcoaceticus IFO 12552; type: cell-based; conditions: IFO12552, agar dilution, DY medium, pH unadjusted, approx. 10^6 CFU/ml, read-out: Minimum Inhibitory Conc. (MIC)
Procedure: as §1, §2, §3, §4, §5

[10] = tested on: Staphylococcus epidermidis IFO 3762; type: cell-based; conditions: IFO3762, agar dilution, DY medium, pH unadjusted, approx. 10^6 CFU/ml, read-out: Minimum Inhibitory Conc. (MIC)
Procedure: as §1, §2, §3, §4, §5

[11] = tested on: Klebsiella pnemoniae IFO 3317; type: cell-based; conditions: IFO3317, agar dilution, DY medium, pH unadjusted, approx. 10^6 CFU/ml, read-out: Minimum Inhibitory Conc. (MIC)
Procedure: as §1, §2, §3, §4, §5

[12] = tested on: Salmonella typhimurium IFO 12529; type: cell-based; conditions: Salmonella enterica; agar dilution; DY medium, pH unadjusted; approx. 10^6 CFU/ml; read-out: Minimum Inhibitory Conc. (MIC)
Procedure: as §1, §2, §3, §4, §5

[13] = Conversion in aqueous solution; type: physicochemical; conditions: for conversion of TAN-1057C and D: especially aqueous alkaline solution, by HPLC
Text: For example, in case that the mixture of TAN-1057A and B is isolated as crystals of the sulfate, the ratio of TAN-1057A and B is about 6 to 8:4 to 2.
The term "Antibiotics TAN-1057" in the present specification includes also a mixture which contains TAN-1057A, B, C and D in an optional combination and an optional ratio thereof.

Acidity or basicity = type: physicochemical
Solubility = type: physicochemical

| Compound | MIC [1] | MIC [2] | MIC [3] | MIC (Bacillus cereus FDA 5) | MIC (Escherichia coli LD-2) | MIC [4] | MIC [5] | MIC [6] | MIC (Aeromonas caviae NCW) | MIC [7] | MIC [8] | MIC [9] | MIC [10] | MIC [11] | MIC [12] | Acidity or basicity (Acidity or basicity) | Solubility (Solubility; acetone) | Solubility (Solubility; diethyl ether) | Solubility (Solubility; dimethylsulfoxide) | Solubility (Solubility; ethyl acetate) | other results |
| --- | --- | --- | --- | --- | --- | --- | --- | --- | --- | --- | --- | --- | --- | --- | --- | --- | --- | --- | --- | --- | --- |
| CN(C(=O)C[C@@H](N)CCCNC(=N)N)[C@@H]1CNC(NC(N)=O)=NC1=O [TAN-1057B] | > 100 µg/mL | > 100 µg/mL | > 100 µg/mL | 100 µg/mL (≈ 281 µM) | 25 µg/mL (≈ 70.3 µM) | 50 µg/mL (≈ 141 µM) | 50 µg/mL (≈ 141 µM) | 25 µg/mL (≈ 70.3 µM) | 25 µg/mL (≈ 70.3 µM) | 50 µg/mL (≈ 141 µM) | 12.5 µg/mL (≈ 35.2 µM) | 100 µg/mL (≈ 281 µM) | 3.13 µg/mL (≈ 8.81 µM) | > 100 µg/mL | > 100 µg/mL | – | – | – | – | – | conversion of TAN-1057A and B into each other ([13]; room temperature): converted easily each other |
| CN1C(=O)C[C@H](CCCNC(=N)N)NC(=O)[C@H]1CNC(=N)NC(N)=O [TAN-1057C dihydrochloride] | – | – | – | – | – | – | – | – | – | – | – | – | – | – | – | neutral | Sparingly soluble | Sparingly soluble | Soluble | Sparingly soluble | Solubility (Solubility; methanol): Soluble; Solubility (Solubility; water): Readily soluble |
| CN1C(=O)C[C@H](CCCNC(=N)N)NC(=O)[C@H]1CNC(=N)NC(N)=O [TAN-1057C] | > 100 µg/mL | > 100 µg/mL | > 100 µg/mL | > 100 µg/mL | 50 µg/mL (≈ 141 µM) | 50 µg/mL (≈ 141 µM) | > 100 µg/mL | 50 µg/mL (≈ 141 µM) | 50 µg/mL (≈ 141 µM) | > 100 µg/mL | 12.5 µg/mL (≈ 35.2 µM) | > 100 µg/mL | 6.25 µg/mL (≈ 17.6 µM) | > 100 µg/mL | > 100 µg/mL | – | – | – | – | – | conversion of TAN-1057C and D [13]: converted into TAN-1057B |
| CN1C(=O)C[C@H](CCCNC(=N)N)NC(=O)[C@@H]1CNC(=N)NC(N)=O [TAN-1057D] | > 100 µg/mL | > 100 µg/mL | > 100 µg/mL | 25 µg/mL (≈ 70.3 µM) | 12.5 µg/mL (≈ 35.2 µM) | 12.5 µg/mL (≈ 35.2 µM) | 12.5 µg/mL (≈ 35.2 µM) | 6.25 µg/mL (≈ 17.6 µM) | 6.25 µg/mL (≈ 17.6 µM) | 12.5 µg/mL (≈ 35.2 µM) | 3.13 µg/mL (≈ 8.81 µM) | 25 µg/mL (≈ 70.3 µM) | 0.78 µg/mL (≈ 2.19 µM) | > 100 µg/mL | > 100 µg/mL | – | – | – | – | – | conversion of TAN-1057C and D [13]: converted into TAN-1057B and TAN-1057A, respectively |
| CN(C(=O)C[C@@H](N)CCCNC(=N)N)[C@H]1CNC(NC(N)=O)=NC1=O [TAN-1057A trihydrochloride] | – | – | – | – | – | – | – | – | – | – | – | – | – | – | – | neutral | Sparingly soluble | Sparingly soluble | Soluble | Sparingly soluble | Solubility (Solubility; methanol): Soluble; Solubility (Solubility; water): Readily soluble |
